Experimental data as given in patent US11370798B2 (Vertex Pharmaceuticals Incorporated, priority 2012, dated 2022).

Test system: HCT116 colorectal cancer cells
Assay: Cisplatin sensitization assay (96 h cell viability MTS);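 note: Test-compound concentration that lowers the Cisplatin IC50 by a set fold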
Assay type: cell-based
Details: compound and Cisplatin added simultaneously, Cisplatin sensitization value
Method: Compounds can be screened for their ability to sensitize HCT116 colorectal cancer cells to Cisplatin using a 96 h cell viability (MTS) assay. […] Compounds and Cisplatin are then both added simultaneously to the cell media in 2-fold serial dilutions from a top final concentration of 10 μM as a full matrix of concentrations in a final cell volume of 200 μl, and the cells are then incubated at 37° C. in 5% CO2. After 96 h, 40 μl of MTS reagent (Promega G358a) is added to each well and the cells are incubated for 1 h at 37° C. in 5% CO2.
Compounds with a Cisplatin sensitization value of <0.02 μM are marked with “+++.” Compounds with a Cisplatin sensitization value>0.02 μM but <0.2 μM are marked with “++.” Compounds with a Cisplatin sensitization value>0.2 μM but <5 μM are marked with “+.”

Compound | Cisplatin Sensitization Assay
Cn1ccnc1-c1ccncc1NC(=O)c1c(N)nn2cc(F)cnc12 [I-C-55, 2-amino-6-fluoro-N-(4-(1-methyl-1H-imidazol-2-yl)pyridin-3-yl)pyrazolo[1,5-a]pyrimidine-3-carboxamide] | + (Cisplatin sensitization value>0.2 μM but <5 μM)
Cn1cncc1-c1ccncc1NC(=O)c1c(N)nn2cc(F)cnc12 [I-C-56, 2-amino-6-fluoro-N-(4-(1-methyl-1H-imidazol-5-yl)pyridin-3-yl)pyrazolo[1,5-a]pyrimidine-3-carboxamide] | +++ (Cisplatin sensitization value of <0.02 μM)
Cn1nccc1-c1ccncc1NC(=O)c1c(N)nn2cc(F)cnc12 [I-C-57, 2-amino-6-fluoro-N-(4-(1-methyl-1H-pyrazol-5-yl)pyridin-3-yl)pyrazolo[1,5-a]pyrimidine-3-carboxamide] | +++ (Cisplatin sensitization value of <0.02 μM)
Cn1c(-c2ccncc2NC(=O)c2c(N)nn3cc(F)cnc23)cccc1=O [I-C-58, 2-amino-6-fluoro-N-(1-methyl-6-oxo-1,6-dihydro-[2,4′-bipyridin]-3′-yl)pyrazolo[1,5-a]pyrimidine-3-carboxamide] | +++ (Cisplatin sensitization value of <0.02 μM)
Cn1cc(-c2ccncc2NC(=O)c2c(N)nn3cc(F)cnc23)ccc1=O [I-C-59, 2-amino-6-fluoro-N-(1-methyl-6-oxo-1,6-dihydro-[3,4′-bipyridin]-3′-yl)pyrazolo[1,5-a]pyrimidine-3-carboxamide] | ++ (Cisplatin sensitization value>0.02 μM but <0.2 μM)
Nc1nn2cc(F)cnc2c1C(=O)Nc1cnccc1-c1ccccn1 [I-C-60, N-([2,4′-bipyridin]-3′-yl)-2-amino-6-fluoropyrazolo[1,5-a]pyrimidine-3-carboxamide] | ++ (Cisplatin sensitization value>0.02 μM but <0.2 μM)
CS(=O)(=O)c1ccc(-c2ccncc2NC(=O)c2c(N)nn3cc(F)cnc23)cc1 [I-C-61, 2-amino-6-fluoro-N-(4-(4-(methylsulfonyl)phenyl)pyridin-3-yl)pyrazolo[1,5-a]pyrimidine-3-carboxamide] | +++ (Cisplatin sensitization value of <0.02 μM)
Cc1nccnc1-c1ccncc1NC(=O)c1c(N)nn2cc(F)cnc12 [I-C-62, 2-amino-6-fluoro-N-(4-(3-methylpyrazin-2-yl)pyridin-3-yl)pyrazolo[1,5-a]pyrimidine-3-carboxamide] | ++ (Cisplatin sensitization value>0.02 μM but <0.2 μM)
Cc1nn(C)cc1-c1ccncc1NC(=O)c1c(N)nn2cc(F)cnc12 [I-C-63, 2-amino-N-(4-(1,3-dimethyl-1H-pyrazol-4-yl)pyridin-3-yl)-6-fluoropyrazolo[1,5-a]pyrimidine-3-carboxamide] | +++ (Cisplatin sensitization value of <0.02 μM)
Nc1nn2cc(F)cnc2c1C(=O)Nc1cnccc1-c1ccc(S(=O)(=O)N2CCC2)cc1 [I-C-64, 2-amino-N-(4-(4-(azetidin-1-ylsulfonyl)phenyl)pyridin-3-yl)-6-fluoropyrazolo[1,5-a]pyrimidine-3-carboxamide] | +++ (Cisplatin sensitization value of <0.02 μM)
Cn1ncnc1-c1ccncc1NC(=O)c1c(N)nn2cc(F)cnc12 [I-C-65, 2-amino-6-fluoro-N-(4-(1-methyl-1H-1,2,4-triazol-5-yl)pyridin-3-yl)pyrazolo[1,5-a]pyrimidine-3-carboxamide] | ++ (Cisplatin sensitization value>0.02 μM but <0.2 μM)
CN1CCOC[C@@H]1c1ccc(-c2ccncc2NC(=O)c2c(N)nn3cc(F)cnc23)cc1 [I-C-66, (S)-2-amino-6-fluoro-N-(4-(4-(4-methylmorpholin-3-yl)phenyl)pyridin-3-yl)pyrazolo[1,5-a]pyrimidine-3-carboxamide] | +++ (Cisplatin sensitization value of <0.02 μM)
Cc1cncnc1-c1ccncc1NC(=O)c1c(N)nn2cc(F)cnc12 [I-C-67, 2-amino-6-fluoro-N-(4-(5-methylpyrimidin-4-yl)pyridin-3-yl)pyrazolo[1,5-a]pyrimidine-3-carboxamide] | ++ (Cisplatin sensitization value>0.02 μM but <0.2 μM)
Cn1ccc(-c2ccncc2NC(=O)c2c(N)nn3cc(F)cnc23)n1 [I-C-68, 2-amino-6-fluoro-N-(4-(1-methyl-1H-pyrazol-3-yl)pyridin-3-yl)pyrazolo[1,5-a]pyrimidine-3-carboxamide] | + (Cisplatin sensitization value>0.2 μM but <5 μM)
CC(=O)N1CCC(c2ccncc2NC(=O)c2c(N)nn3cc(F)cnc23)CC1 [I-C-69, N-(4-(1-acetylpiperidin-4-yl)pyridin-3-yl)-2-amino-6-fluoropyrazolo[1,5-a]pyrimidine-3-carboxamide] | +++ (Cisplatin sensitization value of <0.02 μM)
Nc1nn2cc(F)cnc2c1C(=O)Nc1cnccc1C1CCN(C(=O)C2CC2)CC1 [I-C-70, 2-amino-N-(4-(1-(cyclopropanecarbonyl)piperidin-4-yl)pyridin-3-yl)-6-fluoropyrazolo[1,5-a]pyrimidine-3-carboxamide] | +++ (Cisplatin sensitization value of <0.02 μM)
N#CC1(C(=O)N2CCC(c3ccncc3NC(=O)c3c(N)nn4cc(F)cnc34)CC2)CC1 [I-C-71, 2-amino-N-(4-(1-(1-cyanocyclopropanecarbonyl)piperidin-4-yl)pyridin-3-yl)-6-fluoropyrazolo[1,5-a]pyrimidine-3-carboxamide] | +++ (Cisplatin sensitization value of <0.02 μM)
Cn1nncc1-c1ccncc1NC(=O)c1c(N)nn2cc(F)cnc12 [I-C-72, 2-amino-6-fluoro-N-(4-(1-methyl-1H-1,2,3-triazol-5-yl)pyridin-3-yl)pyrazolo[1,5-a]pyrimidine-3-carboxamide] | +++ (Cisplatin sensitization value of <0.02 μM)
CN1CCC(c2ccncc2NC(=O)c2c(N)nn3cc(F)cnc23)CC1=O (stereo not drawn) [I-C-73, 2-amino-6-fluoro-N-(4-(1-methyl-2-oxopiperidin-4-yl)pyridin-3-yl)pyrazolo[1,5-a]pyrimidine-3-carboxamide] | ++ (Cisplatin sensitization value>0.02 μM but <0.2 μM)
Cn1ccc2c(NC(=O)c3c(N)nn4cc(F)cnc34)cncc21 [I-C-74, 2-amino-6-fluoro-N-(1-methyl-1H-pyrrolo[2,3-c]pyridin-4-yl)pyrazolo[1,5-a]pyrimidine-3-carboxamide] | + (Cisplatin sensitization value>0.2 μM but <5 μM)
Nc1nn2cc(F)cnc2c1C(=O)Nc1cnccc1C1CCOC1 (stereo not drawn) [I-C-75, 2-amino-6-fluoro-N-(4-(tetrahydrofuran-3-yl)pyridin-3-yl)pyrazolo[1,5-a]pyrimidine-3-carboxamide] | ++ (Cisplatin sensitization value>0.02 μM but <0.2 μM)
Nc1nn2cc(F)cnc2c1C(=O)Nc1cnccc1CN1CCCC1=O [I-C-76, 2-amino-6-fluoro-N-(4-((2-oxopyrrolidin-1-yl)methyl)pyridin-3-yl)pyrazolo[1,5-a]pyrimidine-3-carboxamide] | + (Cisplatin sensitization value>0.2 μM but <5 μM)
Cc1ncc(-c2ccncc2NC(=O)c2c(N)nn3cc(F)cnc23)n1C [I-C-77, 2-amino-N-(4-(1,2-dimethyl-1H-imidazol-5-yl)pyridin-3-yl)-6-fluoropyrazolo[1,5-a]pyrimidine-3-carboxamide] | +++ (Cisplatin sensitization value of <0.02 μM)
Cc1ncn(C)c1-c1ccncc1NC(=O)c1c(N)nn2cc(F)cnc12 [I-C-78, 2-amino-N-(4-(1,4-dimethyl-1H-imidazol-5-yl)pyridin-3-yl)-6-fluoropyrazolo[1,5-a]pyrimidine-3-carboxamide] | ++ (Cisplatin sensitization value>0.02 μM but <0.2 μM)
Cn1cncc1-c1c(F)cncc1NC(=O)c1c(N)nn2cc(F)cnc12 [I-C-79, 2-amino-6-fluoro-N-(5-fluoro-4-(1-methyl-1H-imidazol-5-yl)pyridin-3-yl)pyrazolo[1,5-a]pyrimidine-3-carboxamide] | +++ (Cisplatin sensitization value of <0.02 μM)
CCn1cncc1-c1ccncc1NC(=O)c1c(N)nn2cc(F)cnc12 [I-C-80, 2-amino-N-(4-(1-ethyl-1H-imidazol-5-yl)pyridin-3-yl)-6-fluoropyrazolo[1,5-a]pyrimidine-3-carboxamide] | +++ (Cisplatin sensitization value of <0.02 μM)
COc1cncc(NC(=O)c2c(N)nn3cc(F)cnc23)c1-c1cncn1C [I-C-81, 2-amino-6-fluoro-N-(5-methoxy-4-(1-methyl-1H-imidazol-5-yl)pyridin-3-yl)pyrazolo[1,5-a]pyrimidine-3-carboxamide] | +++ (Cisplatin sensitization value of <0.02 μM)
COc1cncc(NC(=O)c2c(N)nn3cc(F)cnc23)c1-c1cccnc1 [I-C-82, 2-amino-6-fluoro-N-(5′-methoxy-[3,4′-bipyridin]-3′-yl)pyrazolo[1,5-a]pyrimidine-3-carboxamide] | +++ (Cisplatin sensitization value of <0.02 μM)
COCCn1cncc1-c1ccncc1NC(=O)c1c(N)nn2cc(F)cnc12 [I-C-83, 2-amino-6-fluoro-N-(4-(1-(2-methoxyethyl)-1H-imidazol-5-yl)pyridin-3-yl)pyrazolo[1,5-a]pyrimidine-3-carboxamide] | ++ (Cisplatin sensitization value>0.02 μM but <0.2 μM)
COc1cncc(NC(=O)c2c(N)nn3cc(F)cnc23)c1C1CC1 [I-C-84, 2-amino-N-(4-cyclopropyl-5-methoxypyridin-3-yl)-6-fluoropyrazolo[1,5-a]pyrimidine-3-carboxamide] | ++ (Cisplatin sensitization value>0.02 μM but <0.2 μM)
